Assay results: patent US20140228440A1, “1-AMINO-ALKYLCYCLOHEXANE DERIVATIVES FOR THE TREATMENT OF INFLAMMATORY SKIN DISEASES” (MERZ PHARMA GmbH & CO. KGaA, priority 2008, published 2014)

Key:
Assay in all cases: MIC and MBC by the agar dilution method
Format in all cases: cell-based
[1] = system: Propionibacterium avidum ATCC 25577; conditions: pH 5.5
Experimental: (§1) To assess the anti-microbial potency of Neramexane against acne relevant bacterias the minimal inhibitory concentration (MIC) and minimal bactericidal concentration (MBC) against the following bacterias is established: The MICs of the samples are determined using the agar dilution method based on DIN 58940. Petri dishes of 5.5 cm diameter are poured with 2.5 ml of freshly prepared Mueller-Hinton agar (Merck company, Cat-No 1.05437) or Wilkins-Chalgren-Agar (Oxoid company, Cat-No CM643), maintained in liquid form at 50° C., to which the sample dilutions at various concentrations have been added at 50.0 vol.-%. To prepare the starting sample dilutions, a 12.5%, 3.12% suspension of the respective sample solution is prepared with Aqua purificata. From these stock-solutions, further dilutions are prepared with Aqua purificata. All test compounds are adjusted to pH 5.5. For test product no. 1, separate dilutions adjusted to pH 6.0 and pH 7.4 are also prepared. For inoculation, 1 μl of the respective germ suspension is placed on the centre of each agar plate. After drying, inoculated plates are incubated at 36.0±2.0° C. The basis for the length of incubation period is the respective growth control cultivated in parallel. The test microbe suspension is prepared by inoculating a few individual colonies of the respective bacteria into sterile saline solution until a turbidity corresponding to the McFarland standard 1.0 (approximately 10^8 cfu/ml) is reached. After that, the test microbe suspensions are further diluted 1:10 with saline solution and the microbial counts (see Table 21) are determined by the surface spread method using a spiral plater. The agar plates are incubated under the conditions given in Table 22 and subsequently evaluated. The MIC-values as given represent the lowest concentration of the active substance at which there is no macroscopically visible growth. Minimal, barely visible growth or few small individual colonies are evaluated as inhibition. [table] All negative tests of the determination of the minimal bactericial concentration are the basis of verification of remaining germs, the inoculated agar segments are cut and put in Mueller-Hinton-Bouillon (germ 1) or Wilkins-Chalgren-Bouillon (germs 2-4). After an adequate incubation period at 36.0±2.0° C. (as judged from a control without test compound), the tests are checked manually on microbial growth (=turbidity) and the minimal bactericidal concentration is determined. MBC indicates the concentration without marked turbidity. Grown germs are checked for identity to rule out unspecific contaminations. The following results are summarized and tabulated: • a) Results of the Minimal Inhibitory Concentration (MIC)* • b) Results of the Minimal Bactericidal Concentration (MBC) *The MIC is the concentration without macroscopical growth. Scarcely apparent, minimum growth or few single colonies are not considered. The controls must have a respectively good developed growth. There must be no growth on the agar plates for the sterile control. The growth of bacteria is indicated for the duplicate plates by a +(i.e., growth) or a −(i.e., no growth), +− indicates weak growth on both plates or growth on one plate and no growth on the other plate. All bacteria show appropriate growth on the respective control plate not containing any test compound. No influence of the used diluent (Aqua purifacata) was observed. No contamination is observed on the control-plates.

[2] = system: Propionibacterium granulosum ATCC 11829
Experimental: as §1

[3] = system: Staphylococcus epidermidis ATCC 12228; conditions: pH 5.5
Experimental: as §1

[4] = final concentration 0.08 %, pH 5.5
[5] = final concentration 0.08 %, pH 6.0
[6] = final concentration 0.08 %, pH 7.4
[7] = final concentration 0.16 %, pH 5.5
[8] = final concentration 0.16 %, pH 6.0
[9] = final concentration 0.16 %, pH 7.4
[10] = final concentration 0.31 %, pH 5.5
[11] = final concentration 0.31 %, pH 6.0
[12] = final concentration 0.31 %, pH 7.4
[13] = final concentration 0.63 %, pH 5.5
[14] = final concentration 0.63 %, pH 6.0
[15] = final concentration 0.63 %, pH 7.4
[16] = final concentration 1.56 %, pH 5.5
[17] = final concentration 1.56 %, pH 6.0
[18] = final concentration 1.56 %, pH 7.4
[19] = final concentration 2.50 %, pH 5.5
[20] = final concentration 2.50 %, pH 6.0
[21] = final concentration 2.50 %, pH 7.4
[22] = final concentration 3.13 %, pH 5.5
[23] = final concentration 3.13 %, pH 6.0
[24] = final concentration 3.13 %, pH 7.4
[25] = final concentration 6.25 %, pH 5.5
[26] = final concentration 6.25 %, pH 6.0
[27] = final concentration 6.25 %, pH 7.4

CC1(C)CC(C)(C)CC(C)(N)C1.CS(=O)(=O)O [Neramexane mesylate]
growth of bacteria on duplicate plates (MIC determination) ([1]; final concentration 0.01 %): + +
growth of bacteria on duplicate plates (MIC determination) ([1]; final concentration 0.04 %): + +
growth of bacteria (MBC determination) ([1]; final concentration 0.08 %): + +
growth of bacteria on duplicate plates (MIC determination) ([1]; final concentration 0.08 %): − −
growth of bacteria (MBC determination) ([1]; final concentration 0.16 %): + +
growth of bacteria on duplicate plates (MIC determination) ([1]; final concentration 0.16 %): − −
growth of bacteria (MBC determination) ([1]; final concentration 0.31 %): + +
growth of bacteria on duplicate plates (MIC determination) ([1]; final concentration 0.31 %): − −
growth of bacteria (MBC determination) ([1]; final concentration 0.63 %): − −
growth of bacteria on duplicate plates (MIC determination) ([1]; final concentration 0.63 %): − −
growth of bacteria (MBC determination) ([1]; final concentration 1.56 %): − −
growth of bacteria on duplicate plates (MIC determination) ([1]; final concentration 1.56 %): − −
growth of bacteria (MBC determination) ([1]; final concentration 2.50 %): − −
growth of bacteria on duplicate plates (MIC determination) ([1]; final concentration 2.50 %): − −
growth of bacteria (MBC determination) ([1]; final concentration 3.13 %): − −
growth of bacteria on duplicate plates (MIC determination) ([1]; final concentration 3.13 %): − −
growth of bacteria (MBC determination) ([1]; final concentration 6.25 %): − −
growth of bacteria on duplicate plates (MIC determination) ([1]; final concentration 6.25 %): − −
MBC [1]: 0.63%
MIC [1]: 0.08%
growth of bacteria on duplicate plates (MIC determination) ([2]; final concentration 0.01 %, pH 5.5): + +
growth of bacteria on duplicate plates (MIC determination) ([2]; final concentration 0.01 %, pH 6.0): + +
growth of bacteria on duplicate plates (MIC determination) ([2]; final concentration 0.01 %, pH 7.4): + +
growth of bacteria on duplicate plates (MIC determination) ([2]; final concentration 0.04 %, pH 5.5): + +
growth of bacteria on duplicate plates (MIC determination) ([2]; final concentration 0.04 %, pH 6.0): + −
growth of bacteria on duplicate plates (MIC determination) ([2]; final concentration 0.04 %, pH 7.4): + −
growth of bacteria (MBC determination) [2, 4]: + +
growth of bacteria on duplicate plates (MIC determination) [2, 4]: − −
growth of bacteria (MBC determination) [2, 5]: + +
growth of bacteria on duplicate plates (MIC determination) [2, 5]: − −
growth of bacteria (MBC determination) [2, 6]: + +
growth of bacteria on duplicate plates (MIC determination) [2, 6]: − −
growth of bacteria (MBC determination) [2, 7]: + +
growth of bacteria on duplicate plates (MIC determination) [2, 7]: − −
growth of bacteria (MBC determination) [2, 8]: + +
growth of bacteria on duplicate plates (MIC determination) [2, 8]: − −
growth of bacteria (MBC determination) [2, 9]: + +
growth of bacteria on duplicate plates (MIC determination) [2, 9]: − −
growth of bacteria (MBC determination) [2, 10]: + +
growth of bacteria on duplicate plates (MIC determination) [2, 10]: − −
growth of bacteria (MBC determination) [2, 11]: − −
growth of bacteria on duplicate plates (MIC determination) [2, 11]: − −
growth of bacteria (MBC determination) [2, 12]: + +
growth of bacteria on duplicate plates (MIC determination) [2, 12]: − −
growth of bacteria (MBC determination) [2, 13]: − −
growth of bacteria on duplicate plates (MIC determination) [2, 13]: − −
growth of bacteria (MBC determination) [2, 14]: − −
growth of bacteria on duplicate plates (MIC determination) [2, 14]: − −
growth of bacteria (MBC determination) [2, 15]: + +
growth of bacteria on duplicate plates (MIC determination) [2, 15]: − −
growth of bacteria (MBC determination) [2, 16]: − −
growth of bacteria on duplicate plates (MIC determination) [2, 16]: − −
growth of bacteria (MBC determination) [2, 17]: − −
growth of bacteria on duplicate plates (MIC determination) [2, 17]: − −
growth of bacteria (MBC determination) [2, 18]: − −
growth of bacteria on duplicate plates (MIC determination) [2, 18]: − −
growth of bacteria (MBC determination) [2, 19]: − −
growth of bacteria on duplicate plates (MIC determination) [2, 19]: − −
growth of bacteria (MBC determination) [2, 20]: − −
growth of bacteria on duplicate plates (MIC determination) [2, 20]: − −
growth of bacteria (MBC determination) [2, 21]: − −
growth of bacteria on duplicate plates (MIC determination) [2, 21]: − −
growth of bacteria (MBC determination) [2, 22]: − −
growth of bacteria on duplicate plates (MIC determination) [2, 22]: − −
growth of bacteria (MBC determination) [2, 23]: − −
growth of bacteria on duplicate plates (MIC determination) [2, 23]: − −
growth of bacteria (MBC determination) [2, 24]: − −
growth of bacteria on duplicate plates (MIC determination) [2, 24]: − −
growth of bacteria (MBC determination) [2, 25]: − −
growth of bacteria on duplicate plates (MIC determination) [2, 25]: − −
growth of bacteria (MBC determination) [2, 26]: − −
growth of bacteria on duplicate plates (MIC determination) [2, 26]: − −
growth of bacteria (MBC determination) [2, 27]: − −
growth of bacteria on duplicate plates (MIC determination) [2, 27]: − −
MBC ([2]; pH 5.5): 0.63%
MIC ([2]; pH 5.5): 0.08%
MBC ([2]; pH 6.0): 0.31%
MIC ([2]; pH 6.0): 0.08%
MBC ([2]; pH 7.4): 1.56%
MIC ([2]; pH 7.4): 0.08%
growth of bacteria on duplicate plates (MIC determination) ([3]; final concentration 0.01 %): + +
growth of bacteria on duplicate plates (MIC determination) ([3]; final concentration 0.04 %): + +
growth of bacteria on duplicate plates (MIC determination) ([3]; final concentration 0.08 %): + +
growth of bacteria (MBC determination) ([3]; final concentration 0.16 %): + +
growth of bacteria on duplicate plates (MIC determination) ([3]; final concentration 0.16 %): − −
growth of bacteria (MBC determination) ([3]; final concentration 0.31 %): + +
growth of bacteria on duplicate plates (MIC determination) ([3]; final concentration 0.31 %): − −
growth of bacteria (MBC determination) ([3]; final concentration 0.63 %): + +
growth of bacteria on duplicate plates (MIC determination) ([3]; final concentration 0.63 %): − −
growth of bacteria (MBC determination) ([3]; final concentration 1.56 %): − −
growth of bacteria on duplicate plates (MIC determination) ([3]; final concentration 1.56 %): − −
growth of bacteria (MBC determination) ([3]; final concentration 2.50 %): − −
growth of bacteria on duplicate plates (MIC determination) ([3]; final concentration 2.50 %): − −
growth of bacteria (MBC determination) ([3]; final concentration 3.13 %): − −
growth of bacteria on duplicate plates (MIC determination) ([3]; final concentration 3.13 %): − −
growth of bacteria (MBC determination) ([3]; final concentration 6.25 %): − −
growth of bacteria on duplicate plates (MIC determination) ([3]; final concentration 6.25 %): − −
MBC [3]: 1.56%
MIC [3]: 0.16%
